target: Apoptosis regulator Bcl-2 (Homo sapiens, UniProt P10415); assay: Bcl-2 Competition Binding (Fluorescence Polarization) Assay: The fluorescence-labeled 23 amino acid peptide BH3 was purchased from CalBiochem ([…], SEQ ID NO: 1). An unbound Fluorescein labeled BH3 peptide emits random light with respect to the plane of polarization plane of excited light, resulting in a lower polarization degree (mP) value. When the peptide is bound to Bcl-2, the complex tumble slower and the emitted light can have a higher level of polarization, resulting in a higher mP value. This binding assay was performed in 96-well plate and with each assay contained 15 and 30 nM of labeled peptide and purified Bcl-2 protein (purchased from R&D Systems, Inc). The assay buffer contained 20 mM Hepes (pH 7.0), 50 mM KCl, 5 mM MgCl2, 20 mM Na2MoO4, 0.1 mg/ml Bovine Gamma Globulin and 0.01% NP40. Compounds were diluted in DMSO and added to the final assay with concentration range from 20 uM to 2 nM. The polarization degree (mP) value was determined by BioTek Synergy II with background subtraction after 3 hours of incubation at room temperature. IC50 was calculated using Prism software with sigmoidal dose-response curve fitting. ABT-737 was used as reference compound. Such assays, carried out with a range of doses of test compounds, allow the determination of an approximate IC50 value.
Sequence (P10415 whole entry): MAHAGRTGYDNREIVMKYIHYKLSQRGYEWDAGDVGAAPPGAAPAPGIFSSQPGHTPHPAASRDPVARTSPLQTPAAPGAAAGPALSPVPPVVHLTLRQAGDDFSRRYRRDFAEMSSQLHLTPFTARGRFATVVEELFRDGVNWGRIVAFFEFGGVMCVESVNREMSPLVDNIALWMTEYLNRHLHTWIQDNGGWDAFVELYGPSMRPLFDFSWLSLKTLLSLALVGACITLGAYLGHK

IC50, < 10 nM:
CC1(C)CCC(CN2CCN(c3ccc(C(=O)NS(=O)(=O)c4ccc(NC5CCN(C6CCOCC6)CC5)c([N+](=O)[O-])c4)c(-n4ncc5nc6[nH]ccc6cc54)c3)CC2)=C(c2ccc(Cl)cc2)C1, CN1CCC(F)(COc2ccc(S(=O)(=O)NC(=O)c3ccc(N4CCN(CC5=C(c6ccc(Cl)cc6)CC(C)(C)CC5)CC4)cc3-n3ncc4nc5[nH]ccc5cc43)cc2[N+](=O)[O-])CC1, CC1(C)CCC(CN2CCN(c3ccc(C(=O)NS(=O)(=O)c4ccc(NCCCN5CCOCC5)c([N+](=O)[O-])c4)c(-n4ncc5nc6[nH]ccc6cc54)c3)CC2)=C(c2ccc(Cl)cc2)C1

— ChEMBL document CHEMBL5727360, “BCL-2 inhibitors” (2019)
